# According to ChEMBL document CHEMBL3991601, “The target landscape of clinical kinase drugs” (Science, 2017):
# Calls of active or inactive are those of the source. Rule as the data show it, for most assays here: actives have a measured Kd and inactives only a lower limit.
# Tests used:
# [1] = biological target: Bone morphogenetic protein receptor type-1A (Homo sapiens, UniProt P36894)
# [2] = biological target: Glycogen synthase kinase-3 alpha (Homo sapiens, UniProt P49840)
# [3] = biological target: T1, Serine/threonine-protein kinase ICK (Homo sapiens, UniProt Q9UPZ9)
# T1 sequence (Q9UPZ9 whole entry): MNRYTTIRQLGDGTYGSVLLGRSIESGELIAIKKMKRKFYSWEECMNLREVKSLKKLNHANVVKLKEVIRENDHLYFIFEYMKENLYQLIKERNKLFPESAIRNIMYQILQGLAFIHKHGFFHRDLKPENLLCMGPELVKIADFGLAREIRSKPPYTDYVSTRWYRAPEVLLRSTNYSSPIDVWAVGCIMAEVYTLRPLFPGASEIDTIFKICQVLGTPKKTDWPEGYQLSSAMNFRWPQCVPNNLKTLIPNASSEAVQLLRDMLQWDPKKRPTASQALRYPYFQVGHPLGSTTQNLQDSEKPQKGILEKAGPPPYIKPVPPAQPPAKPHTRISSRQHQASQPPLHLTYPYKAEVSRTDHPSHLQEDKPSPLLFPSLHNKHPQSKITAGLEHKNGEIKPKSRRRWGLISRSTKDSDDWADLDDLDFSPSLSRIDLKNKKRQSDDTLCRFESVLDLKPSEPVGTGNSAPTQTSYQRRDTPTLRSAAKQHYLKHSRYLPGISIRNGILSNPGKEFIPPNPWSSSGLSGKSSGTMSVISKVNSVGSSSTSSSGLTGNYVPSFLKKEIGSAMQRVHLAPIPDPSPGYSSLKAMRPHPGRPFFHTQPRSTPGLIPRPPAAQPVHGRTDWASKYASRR
# [4] = biological target: T2, Mitogen-activated protein kinase kinase kinase 5 (Homo sapiens, UniProt Q99683)
# T2 sequence (Q99683 whole entry): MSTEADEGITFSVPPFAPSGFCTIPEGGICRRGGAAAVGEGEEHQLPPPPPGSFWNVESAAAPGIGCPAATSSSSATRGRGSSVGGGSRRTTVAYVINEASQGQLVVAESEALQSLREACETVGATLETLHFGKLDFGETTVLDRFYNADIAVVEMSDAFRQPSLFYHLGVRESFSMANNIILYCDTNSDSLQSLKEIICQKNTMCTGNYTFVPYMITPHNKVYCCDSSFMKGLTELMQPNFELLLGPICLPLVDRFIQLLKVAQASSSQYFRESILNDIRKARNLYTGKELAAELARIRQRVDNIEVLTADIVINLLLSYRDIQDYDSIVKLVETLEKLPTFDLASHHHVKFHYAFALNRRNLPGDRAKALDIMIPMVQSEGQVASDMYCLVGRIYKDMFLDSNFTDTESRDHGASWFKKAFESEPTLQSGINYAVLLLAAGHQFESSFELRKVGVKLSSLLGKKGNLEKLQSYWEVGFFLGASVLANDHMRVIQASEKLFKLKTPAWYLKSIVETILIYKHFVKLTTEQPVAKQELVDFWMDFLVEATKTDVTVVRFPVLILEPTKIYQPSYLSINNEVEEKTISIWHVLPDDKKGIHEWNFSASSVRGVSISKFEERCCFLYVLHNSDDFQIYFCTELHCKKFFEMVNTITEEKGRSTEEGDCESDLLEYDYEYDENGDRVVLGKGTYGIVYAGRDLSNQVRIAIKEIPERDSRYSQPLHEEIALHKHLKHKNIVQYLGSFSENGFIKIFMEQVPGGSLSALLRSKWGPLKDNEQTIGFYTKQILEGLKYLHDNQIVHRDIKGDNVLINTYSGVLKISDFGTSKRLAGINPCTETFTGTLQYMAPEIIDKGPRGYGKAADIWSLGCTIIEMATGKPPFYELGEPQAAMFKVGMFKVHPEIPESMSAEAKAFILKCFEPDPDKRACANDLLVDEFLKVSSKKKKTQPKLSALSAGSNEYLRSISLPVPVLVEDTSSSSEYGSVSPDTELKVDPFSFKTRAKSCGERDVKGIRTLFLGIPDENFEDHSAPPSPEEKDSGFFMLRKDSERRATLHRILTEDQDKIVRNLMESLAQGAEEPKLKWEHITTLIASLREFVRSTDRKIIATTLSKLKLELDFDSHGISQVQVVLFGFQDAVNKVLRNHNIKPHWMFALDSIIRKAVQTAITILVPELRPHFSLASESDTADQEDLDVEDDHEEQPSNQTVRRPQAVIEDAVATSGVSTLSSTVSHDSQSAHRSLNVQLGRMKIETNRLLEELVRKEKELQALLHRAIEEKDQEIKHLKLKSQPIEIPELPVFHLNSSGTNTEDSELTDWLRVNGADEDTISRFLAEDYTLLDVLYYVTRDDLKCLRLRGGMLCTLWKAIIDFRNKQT
# [5] = biological target: MAP kinase-activated protein kinase 2 (Homo sapiens, UniProt P49137)
# [6] = biological target: S-adenosylmethionine synthase isoform type-2 (Homo sapiens, UniProt P31153)
# [7] = biological target: Protein kinase C beta type (Homo sapiens, UniProt P05771)
# [8] = biological target: Protein-tyrosine kinase 2-beta (Homo sapiens, UniProt Q14289)
# [9] = biological target: Serine/threonine-protein kinase SIK2 (Homo sapiens, UniProt Q9H0K1)
# [10] = biological target: Serine/threonine-protein kinase 26 (Homo sapiens, UniProt Q9P289)
# [11] = biological target: T3, Serine/threonine-protein kinase 4 (Homo sapiens, UniProt Q13043)
# T3 sequence (Q13043 whole entry): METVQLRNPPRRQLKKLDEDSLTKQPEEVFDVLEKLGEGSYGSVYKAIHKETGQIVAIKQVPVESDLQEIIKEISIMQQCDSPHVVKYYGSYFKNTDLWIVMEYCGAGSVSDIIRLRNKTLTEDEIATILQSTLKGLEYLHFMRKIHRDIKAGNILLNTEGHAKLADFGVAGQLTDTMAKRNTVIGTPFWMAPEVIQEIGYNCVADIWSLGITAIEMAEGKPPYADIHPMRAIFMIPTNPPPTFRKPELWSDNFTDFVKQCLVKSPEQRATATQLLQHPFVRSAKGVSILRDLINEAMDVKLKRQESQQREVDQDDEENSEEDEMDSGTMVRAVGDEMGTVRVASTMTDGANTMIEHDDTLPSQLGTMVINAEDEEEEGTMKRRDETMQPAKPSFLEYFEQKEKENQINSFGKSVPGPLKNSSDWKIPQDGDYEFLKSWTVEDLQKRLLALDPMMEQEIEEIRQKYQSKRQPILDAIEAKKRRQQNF
# Also: in the data inactive means no Kd found up to 30 µM.
# Chain of Protein kinase C beta type (P05771 whole entry): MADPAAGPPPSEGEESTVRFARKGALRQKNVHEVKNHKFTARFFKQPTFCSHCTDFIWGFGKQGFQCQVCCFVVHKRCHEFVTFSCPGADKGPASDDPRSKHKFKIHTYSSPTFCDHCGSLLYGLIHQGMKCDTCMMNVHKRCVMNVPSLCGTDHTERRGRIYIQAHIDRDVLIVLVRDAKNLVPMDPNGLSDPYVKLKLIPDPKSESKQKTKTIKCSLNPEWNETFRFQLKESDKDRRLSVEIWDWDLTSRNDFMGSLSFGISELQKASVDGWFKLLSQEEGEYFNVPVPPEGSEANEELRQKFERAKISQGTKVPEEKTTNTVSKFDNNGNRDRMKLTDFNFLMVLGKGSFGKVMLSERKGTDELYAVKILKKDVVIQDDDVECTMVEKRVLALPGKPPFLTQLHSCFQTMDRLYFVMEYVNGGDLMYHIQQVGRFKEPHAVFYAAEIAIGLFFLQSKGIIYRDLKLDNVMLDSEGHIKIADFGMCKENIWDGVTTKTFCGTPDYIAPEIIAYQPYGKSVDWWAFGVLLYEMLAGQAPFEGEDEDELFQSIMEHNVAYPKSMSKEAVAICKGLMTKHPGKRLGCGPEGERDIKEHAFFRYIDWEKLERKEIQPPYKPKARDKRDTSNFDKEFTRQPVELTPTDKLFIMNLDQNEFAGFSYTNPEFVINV
# Chain of S-adenosylmethionine synthase isoform type-2 (P31153 whole entry, canonical isoform): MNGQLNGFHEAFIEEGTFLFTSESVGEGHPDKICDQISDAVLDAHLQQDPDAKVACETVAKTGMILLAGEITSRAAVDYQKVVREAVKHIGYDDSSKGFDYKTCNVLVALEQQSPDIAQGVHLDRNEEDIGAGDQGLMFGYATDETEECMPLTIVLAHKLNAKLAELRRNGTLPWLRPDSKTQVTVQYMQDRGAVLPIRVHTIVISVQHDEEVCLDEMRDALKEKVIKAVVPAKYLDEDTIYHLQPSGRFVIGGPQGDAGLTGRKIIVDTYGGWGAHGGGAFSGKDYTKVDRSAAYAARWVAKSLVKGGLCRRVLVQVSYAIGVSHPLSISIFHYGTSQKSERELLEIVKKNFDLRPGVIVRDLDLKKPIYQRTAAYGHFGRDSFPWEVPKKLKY
# Chain of MAP kinase-activated protein kinase 2 (P49137 whole entry, canonical isoform): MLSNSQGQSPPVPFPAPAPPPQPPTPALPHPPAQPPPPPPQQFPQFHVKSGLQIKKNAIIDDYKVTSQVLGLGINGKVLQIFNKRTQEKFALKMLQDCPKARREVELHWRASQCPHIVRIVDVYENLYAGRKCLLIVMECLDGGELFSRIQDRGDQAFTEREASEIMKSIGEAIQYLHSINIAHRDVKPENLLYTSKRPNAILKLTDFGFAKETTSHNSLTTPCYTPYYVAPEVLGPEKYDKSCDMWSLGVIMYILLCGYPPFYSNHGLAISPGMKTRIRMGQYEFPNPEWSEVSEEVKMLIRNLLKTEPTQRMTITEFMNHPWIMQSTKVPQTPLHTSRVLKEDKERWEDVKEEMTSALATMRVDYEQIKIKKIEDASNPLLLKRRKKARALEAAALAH
# Chain of Glycogen synthase kinase-3 alpha (P49840 whole entry): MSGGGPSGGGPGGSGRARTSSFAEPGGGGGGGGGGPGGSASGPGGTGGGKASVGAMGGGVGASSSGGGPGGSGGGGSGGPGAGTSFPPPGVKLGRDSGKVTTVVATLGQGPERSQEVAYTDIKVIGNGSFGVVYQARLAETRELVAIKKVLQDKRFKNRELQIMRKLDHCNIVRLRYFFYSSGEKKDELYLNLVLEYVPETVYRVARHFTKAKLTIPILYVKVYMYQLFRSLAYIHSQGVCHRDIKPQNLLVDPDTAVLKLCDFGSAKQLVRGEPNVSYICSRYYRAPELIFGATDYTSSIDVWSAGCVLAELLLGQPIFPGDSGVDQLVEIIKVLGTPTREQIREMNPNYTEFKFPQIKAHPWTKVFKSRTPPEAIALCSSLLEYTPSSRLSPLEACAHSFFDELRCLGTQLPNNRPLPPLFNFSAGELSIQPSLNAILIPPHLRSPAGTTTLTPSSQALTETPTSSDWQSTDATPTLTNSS
# Chain of Serine/threonine-protein kinase SIK2 (Q9H0K1 whole entry): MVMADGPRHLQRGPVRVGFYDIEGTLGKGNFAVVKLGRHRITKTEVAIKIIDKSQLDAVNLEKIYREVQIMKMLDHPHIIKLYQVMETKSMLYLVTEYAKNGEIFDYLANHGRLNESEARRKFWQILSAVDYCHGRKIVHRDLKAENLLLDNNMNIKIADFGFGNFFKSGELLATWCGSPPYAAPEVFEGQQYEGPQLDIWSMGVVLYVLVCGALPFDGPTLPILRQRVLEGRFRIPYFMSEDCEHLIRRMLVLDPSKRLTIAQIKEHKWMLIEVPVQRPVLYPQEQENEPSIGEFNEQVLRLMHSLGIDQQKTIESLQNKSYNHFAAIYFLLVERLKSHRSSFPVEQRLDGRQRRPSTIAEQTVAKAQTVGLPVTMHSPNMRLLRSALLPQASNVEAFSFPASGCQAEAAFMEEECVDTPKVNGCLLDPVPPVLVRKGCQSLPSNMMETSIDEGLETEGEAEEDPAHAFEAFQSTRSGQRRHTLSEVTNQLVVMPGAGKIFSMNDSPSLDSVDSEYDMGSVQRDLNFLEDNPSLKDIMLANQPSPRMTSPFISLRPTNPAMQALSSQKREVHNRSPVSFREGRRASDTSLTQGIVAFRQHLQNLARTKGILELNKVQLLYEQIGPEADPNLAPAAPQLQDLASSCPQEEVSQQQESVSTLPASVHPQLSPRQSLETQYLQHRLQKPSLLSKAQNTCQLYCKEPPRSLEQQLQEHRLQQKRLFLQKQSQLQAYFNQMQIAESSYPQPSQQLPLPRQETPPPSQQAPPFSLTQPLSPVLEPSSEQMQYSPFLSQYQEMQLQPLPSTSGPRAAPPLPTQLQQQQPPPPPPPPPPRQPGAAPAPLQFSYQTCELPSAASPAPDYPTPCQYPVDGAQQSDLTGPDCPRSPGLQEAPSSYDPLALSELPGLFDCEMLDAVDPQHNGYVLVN
# Chain of Protein-tyrosine kinase 2-beta (Q14289 whole entry): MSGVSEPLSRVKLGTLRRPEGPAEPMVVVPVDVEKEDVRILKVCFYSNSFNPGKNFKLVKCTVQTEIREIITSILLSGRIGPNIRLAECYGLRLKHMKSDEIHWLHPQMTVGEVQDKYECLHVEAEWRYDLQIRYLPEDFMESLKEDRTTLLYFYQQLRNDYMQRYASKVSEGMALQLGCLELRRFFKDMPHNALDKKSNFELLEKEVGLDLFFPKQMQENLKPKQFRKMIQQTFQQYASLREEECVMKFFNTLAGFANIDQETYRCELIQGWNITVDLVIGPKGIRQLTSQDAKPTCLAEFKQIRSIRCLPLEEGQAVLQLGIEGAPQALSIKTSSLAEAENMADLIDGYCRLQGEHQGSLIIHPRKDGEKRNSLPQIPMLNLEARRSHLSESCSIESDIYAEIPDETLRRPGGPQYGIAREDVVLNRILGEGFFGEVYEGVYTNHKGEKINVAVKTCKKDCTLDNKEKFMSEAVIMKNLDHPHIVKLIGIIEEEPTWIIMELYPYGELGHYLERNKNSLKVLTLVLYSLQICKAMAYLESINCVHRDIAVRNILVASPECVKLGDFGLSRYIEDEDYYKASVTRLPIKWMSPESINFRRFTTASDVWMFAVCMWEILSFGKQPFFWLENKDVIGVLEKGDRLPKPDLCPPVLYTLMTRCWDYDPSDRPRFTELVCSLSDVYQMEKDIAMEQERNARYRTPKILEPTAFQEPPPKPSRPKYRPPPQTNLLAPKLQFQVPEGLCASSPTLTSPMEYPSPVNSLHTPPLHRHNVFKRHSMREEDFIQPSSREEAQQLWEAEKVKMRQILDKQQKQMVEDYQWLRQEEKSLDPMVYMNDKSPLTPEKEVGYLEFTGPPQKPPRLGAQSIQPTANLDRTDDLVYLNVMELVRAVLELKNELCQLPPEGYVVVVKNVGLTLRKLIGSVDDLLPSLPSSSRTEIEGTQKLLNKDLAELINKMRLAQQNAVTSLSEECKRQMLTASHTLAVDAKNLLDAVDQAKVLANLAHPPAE
# Chain of Bone morphogenetic protein receptor type-1A (P36894 whole entry): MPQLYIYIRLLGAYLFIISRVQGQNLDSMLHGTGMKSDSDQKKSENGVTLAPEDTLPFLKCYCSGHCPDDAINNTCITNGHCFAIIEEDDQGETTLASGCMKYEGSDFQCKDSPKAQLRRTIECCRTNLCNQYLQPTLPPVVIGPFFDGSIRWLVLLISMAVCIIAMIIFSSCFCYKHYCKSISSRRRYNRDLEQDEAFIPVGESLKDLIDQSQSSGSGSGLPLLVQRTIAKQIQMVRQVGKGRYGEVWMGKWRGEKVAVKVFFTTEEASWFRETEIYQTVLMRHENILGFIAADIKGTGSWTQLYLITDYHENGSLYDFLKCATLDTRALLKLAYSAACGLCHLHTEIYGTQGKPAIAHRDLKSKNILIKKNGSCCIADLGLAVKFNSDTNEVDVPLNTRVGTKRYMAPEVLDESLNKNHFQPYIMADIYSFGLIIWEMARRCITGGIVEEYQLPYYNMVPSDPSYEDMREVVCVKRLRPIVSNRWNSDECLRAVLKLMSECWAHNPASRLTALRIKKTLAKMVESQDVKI
# Chain of Serine/threonine-protein kinase 26 (Q9P289 whole entry): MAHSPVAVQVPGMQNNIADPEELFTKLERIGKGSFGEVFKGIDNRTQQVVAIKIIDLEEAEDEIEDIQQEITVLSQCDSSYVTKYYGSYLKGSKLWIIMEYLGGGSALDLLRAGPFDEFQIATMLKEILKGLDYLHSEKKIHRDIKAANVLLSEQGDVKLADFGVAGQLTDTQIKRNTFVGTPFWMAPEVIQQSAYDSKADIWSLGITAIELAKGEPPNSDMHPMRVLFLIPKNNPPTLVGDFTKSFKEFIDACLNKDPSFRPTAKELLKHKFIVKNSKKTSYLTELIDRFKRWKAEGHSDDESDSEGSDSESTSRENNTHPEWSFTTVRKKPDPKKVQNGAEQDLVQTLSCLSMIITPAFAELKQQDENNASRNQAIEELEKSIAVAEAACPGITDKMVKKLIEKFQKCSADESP
SMILES,Kd [1],Kd [2],Kd [3],Kd [4],Kd [5],Kd [6],Kd [7],Kd [8],Kd [9],Kd [10],Kd [11]
Cc1cc(Nc2nc(N[C@@H](C)c3ncc(F)cn3)ncc2Cl)n[nH]1 [AZD-1480],> 30 µM (inactive),> 30 µM (inactive),> 30 µM (inactive),> 30 µM (inactive),> 30 µM (inactive),> 30 µM (inactive),> 30 µM (inactive),1.88 µM (active),> 30 µM (inactive),> 30 µM (inactive),0.861 µM (active)
COc1cccc(Nc2ncnn3ccc(CN4CC[C@@H](N)[C@H](O)C4)c23)c1 [BMS-690514],> 30 µM (inactive),> 30 µM (inactive),> 30 µM (inactive),> 30 µM (inactive),> 30 µM (inactive),> 30 µM (inactive),> 30 µM (inactive),> 30 µM (inactive),0.048 µM (active),> 30 µM (inactive),> 30 µM (inactive)
COc1cc2ncnc3c2cc1OCCCCCN(C)Cc1ccc(Br)cc1N3 [JNJ-26483327],> 30 µM (inactive),> 30 µM (inactive),> 30 µM (inactive),> 30 µM (inactive),> 30 µM (inactive),> 30 µM (inactive),> 30 µM (inactive),> 30 µM (inactive),> 30 µM (inactive),> 30 µM (inactive),> 30 µM (inactive)
CCc1cc2c(cc1N1CCC(N3CCOCC3)CC1)C(C)(C)c1[nH]c3cc(C#N)ccc3c1C2=O [ALECTINIB],> 30 µM (inactive),> 30 µM (inactive),> 30 µM (inactive),> 30 µM (inactive),> 30 µM (inactive),> 30 µM (inactive),> 30 µM (inactive),> 30 µM (inactive),> 30 µM (inactive),> 30 µM (inactive),> 30 µM (inactive)
CNC(=O)c1cccc(-c2ccc3c(N4CCOC[C@@H]4C)nc(N4CCOC[C@@H]4C)nc3n2)c1 [VISTUSERTIB],> 30 µM (inactive),> 30 µM (inactive),> 30 µM (inactive),> 30 µM (inactive),> 30 µM (inactive),> 30 µM (inactive),> 30 µM (inactive),> 30 µM (inactive),> 30 µM (inactive),> 30 µM (inactive),> 30 µM (inactive)
CNC(=O)c1cc(COc2nnc(Nc3ccc(Cl)cc3)c3ccoc23)ccn1 [TELATINIB],> 30 µM (inactive),> 30 µM (inactive),> 30 µM (inactive),> 30 µM (inactive),> 30 µM (inactive),> 30 µM (inactive),> 30 µM (inactive),> 30 µM (inactive),> 30 µM (inactive),> 30 µM (inactive),> 30 µM (inactive)
Cn1c(=O)c(F)c(Nc2ccc(I)cc2F)c2c(=O)n(C[C@@H](O)CO)cnc21 [TAK-733],> 30 µM (inactive),> 30 µM (inactive),> 30 µM (inactive),> 30 µM (inactive),> 30 µM (inactive),> 30 µM (inactive),> 30 µM (inactive),> 30 µM (inactive),> 30 µM (inactive),> 30 µM (inactive),> 30 µM (inactive)
CC[C@@](C)(Nc1ccnc(-c2c[nH]c3ncccc23)n1)C(=O)NCC(F)(F)F [DECERNOTINIB],> 30 µM (inactive),> 30 µM (inactive),> 30 µM (inactive),> 30 µM (inactive),> 30 µM (inactive),> 30 µM (inactive),0.426 µM (active),> 30 µM (inactive),> 30 µM (inactive),1.14 µM (active),> 30 µM (inactive)
Cc1cc(-c2cc(OC(=O)c3ccccc3)ccc2Cl)cc2nnc(Nc3ccc(OCCN4CCCC4)cc3)nc12 [TG100-801],> 30 µM (inactive),> 30 µM (inactive),> 30 µM (inactive),> 30 µM (inactive),> 30 µM (inactive),> 30 µM (inactive),> 30 µM (inactive),> 30 µM (inactive),> 30 µM (inactive),> 30 µM (inactive),> 30 µM (inactive)
CC(C)(O)CC(=O)NCCn1ccc2ncnc(Nc3ccc(Oc4cccc(C(F)(F)F)c4)c(Cl)c3)c21 [TAK-285],> 30 µM (inactive),> 30 µM (inactive),> 30 µM (inactive),> 30 µM (inactive),> 30 µM (inactive),> 30 µM (inactive),> 30 µM (inactive),> 30 µM (inactive),> 30 µM (inactive),> 30 µM (inactive),> 30 µM (inactive)
C=CCN(/C=C1/C(=O)O[C@H](COC)[C@@]2(C)C1=C(O)C(=O)C1=C2[C@H](OC(C)=O)C[C@]2(C)C(=O)CC[C@@H]12)CC=C [SONOLISIB],> 30 µM (inactive),> 30 µM (inactive),> 30 µM (inactive),> 30 µM (inactive),> 30 µM (inactive),> 30 µM (inactive),> 30 µM (inactive),> 30 µM (inactive),> 30 µM (inactive),> 30 µM (inactive),> 30 µM (inactive)
COc1cc(Nc2ncc(F)c(Nc3ccc4c(n3)N(COP(=O)(O)O)C(=O)C(C)(C)O4)n2)cc(OC)c1OC [FOSTAMATINIB],> 30 µM (inactive),> 30 µM (inactive),> 30 µM (inactive),> 30 µM (inactive),> 30 µM (inactive),> 30 µM (inactive),> 30 µM (inactive),> 30 µM (inactive),> 30 µM (inactive),> 30 µM (inactive),> 30 µM (inactive)
C[C@@H]1COC(Nc2ccc3ncnc(Nc4ccc(OCc5nccs5)c(Cl)c4)c3c2)=N1 [VARLITINIB],> 30 µM (inactive),> 30 µM (inactive),> 30 µM (inactive),> 30 µM (inactive),> 30 µM (inactive),> 30 µM (inactive),> 30 µM (inactive),> 30 µM (inactive),> 30 µM (inactive),> 30 µM (inactive),> 30 µM (inactive)
